Marks after values point to notes of the source that are not given here.
Test system: human PBMC
Assay: PG levels (PGE2, PGD2, 15d-PGJ2) in culture medium of human PBMC cultured with and without TNF-α, EIA (Example 3)
Assay type: cell-based
Description: Whole blood was collected from donors in EDTA-supplemented pouches at the Etablissement Français du Sang (Brest, France). The PBMC were isolated then from whole blood under sterile conditions within 36 hours after collection. Gradient density centrifugation was carried out on Ficoll (Eurobio). After washing in RPMI 1640 medium (Eurobio), cells were suspended in RPMI 1640 medium supplemented with 10% heat-inactivated fetal calf serum (Eurobio), 2 mM glutamine (D. Dutscher), 100 U of penicillin/ml (D. Dutscher), and 100 μg of streptomycin/ml (D. Dutscher). Monocytes were selected by plastic adherence for 1 h and approximately 10^7 cells were plated in 6-well tissue culture plates (3 mL medium per well). All incubations were performed in a humidified incubator at 37° C. and 5% CO2. Cells were recovered and dispersed in 2 ml fresh incubation medium supplemented with either 7β-hydroxyEPIA, 7β-hydroxy-DHEA, or 7α-hydroxy-DHEA (in 20 μL ethanol) in the presence or absence of 0.01 μg/mL TNF-α (Sigma-Aldrich). Control incubations contained 20 μl ethanol but no steroid. Supernatants were collected after 4 h and 24 hours incubations for measurement of their PG contents and cells were used for subsequent RNA isolation. A single step extraction method using the Trizol Reagent (Invitrogen, Cergy-Pontoise, France) provided total RNA.
Commercially available EIA kits were used for the determination of PGE2 levels (Oxford Biomedical Research, UK) and 15d-PGJ2 levels (Assay designs, Euromedex, France) in culture media. Measurement of PGD2 levels was obtained using the prostaglandin D2-MOX EIA kit (Cayman Chemical, Euromedex). In this case, and prior to assay, the fresh samples were immediately treated with the MOX-HCl reagent, which converted PGD2 into PGD2-MOX, thus preventing any further chemical degradation.
All assays were carried out in triplicate and results were plotted as mean±S.E.M. One-way analysis of variance was performed followed by Duncan's multiple range tests in order to compare the differences between groups. Differences were considered statistically significant when p<0.05.

[1] = 100 nM + TNF-α (10 ng/mL), 24 h

**Q.** Which 15d-PGJ2 (1 nM + TNF-α (10 ng/mL), 4 h) does the source give for CC12CCC3C(C1CCC2=O)[C@@H](O)C[C@H]1C[C@@H](O)CCC31C (stereo partly drawn) [Compound 7β-OH-EPIA, 7β-hydroxy-EPIAndrosterone] here?
**A.** Its 15d-PGJ2 is 0.37 ± 0.029 ng/mL.

**Q.** And the PGD2 (1 nM + TNF-α (10 ng/mL), 4 h)?
**A.** The PGD2 was 0.22 ± 0.082 ng/mL.

**Q.** And the PGE2 (1 nM + TNF-α (10 ng/mL), 4 h)?
**A.** The PGE2 was 0.50 ± 0.012 ng/mL.

**Q.** What about the 15d-PGJ2 (1 nM + TNF-α (10 ng/mL), 24 h) of the same compound?
**A.** The 15d-PGJ2 was 2.18 ± 0.183^c ng/mL.

**Q.** What about the PGD2 (1 nM + TNF-α (10 ng/mL), 24 h) of the same compound?
**A.** The PGD2 was 0.47 ± 0.013^d ng/mL.

**Q.** And the PGE2 (1 nM + TNF-α (10 ng/mL), 24 h)?
**A.** Its PGE2 is 0.70 ± 0.001^b ng/mL.

**Q.** And the 15d-PGJ2 (1 nM, 4 h, without TNF-α)?
**A.** The 15d-PGJ2 was 0.39 ± 0.080 ng/mL.

**Q.** What about the PGD2 (1 nM, 4 h, without TNF-α) of the same compound?
**A.** The PGD2 was 0.18 ± 0.005 ng/mL.

**Q.** And the PGE2 (1 nM, 4 h, without TNF-α)?
**A.** Its PGE2 is 0.26 ± 0.011 ng/mL.

**Q.** What about the 15d-PGJ2 (1 nM, 24 h, without TNF-α) of the same compound?
**A.** Its 15d-PGJ2 is 0.85 ± 0.014^a ng/mL.

**Q.** What about the PGD2 (1 nM, 24 h, without TNF-α) of the same compound?
**A.** The PGD2 was 0.21 ± 0.012^a ng/mL.

**Q.** What about the PGE2 (1 nM, 24 h, without TNF-α) of the same compound?
**A.** Its PGE2 is 0.26 ± 0.015 ng/mL.

**Q.** What about the 15d-PGJ2 (10 nM + TNF-α (10 ng/mL), 4 h) of the same compound?
**A.** The 15d-PGJ2 was 0.40 ± 0.007 ng/mL.

**Q.** And the PGD2 (10 nM + TNF-α (10 ng/mL), 4 h)?
**A.** Its PGD2 is 0.22 ± 0.010 ng/mL.

**Q.** What about the PGE2 (10 nM + TNF-α (10 ng/mL), 4 h) of the same compound?
**A.** Its PGE2 is 0.49 ± 0.021 ng/mL.

**Q.** And the 15d-PGJ2 (10 nM + TNF-α (10 ng/mL), 24 h)?
**A.** The 15d-PGJ2 was 2.77 ± 0.021^c ng/mL.

**Q.** What about the PGD2 (10 nM + TNF-α (10 ng/mL), 24 h) of the same compound?
**A.** Its PGD2 is 0.42 ± 0.009^d ng/mL.

**Q.** And the PGE2 (10 nM + TNF-α (10 ng/mL), 24 h)?
**A.** Its PGE2 is 0.80 ± 0.012^b ng/mL.

**Q.** And the 15d-PGJ2 (10 nM, 4 h, without TNF-α)?
**A.** Its 15d-PGJ2 is 0.39 ± 0.010 ng/mL.

**Q.** What about the PGD2 (10 nM, 4 h, without TNF-α) of the same compound?
**A.** The PGD2 was 0.19 ± 0.020 ng/mL.

**Q.** What about the PGE2 (10 nM, 4 h, without TNF-α) of the same compound?
**A.** Its PGE2 is 0.23 ± 0.022 ng/mL.

**Q.** And the 15d-PGJ2 (10 nM, 24 h, without TNF-α)?
**A.** The 15d-PGJ2 was 0.91 ± 0.032^a ng/mL.

**Q.** What about the PGD2 (10 nM, 24 h, without TNF-α) of the same compound?
**A.** Its PGD2 is 0.23 ± 0.001^a ng/mL.

**Q.** And the PGE2 (10 nM, 24 h, without TNF-α)?
**A.** The PGE2 was 0.23 ± 0.021 ng/mL.

**Q.** And the 15d-PGJ2 (100 nM + TNF-α (10 ng/mL), 4 h)?
**A.** Its 15d-PGJ2 is 0.37 ± 0.016 ng/mL.

**Q.** What about the PGD2 (100 nM + TNF-α (10 ng/mL), 4 h) of the same compound?
**A.** Its PGD2 is 0.23 ± 0.007 ng/mL.

**Q.** And the PGE2 (100 nM + TNF-α (10 ng/mL), 4 h)?
**A.** The PGE2 was 0.42 ± 0.020 ng/mL.

**Q.** What about the 15d-PGJ2 [1] of the same compound?
**A.** The 15d-PGJ2 was 0.85 ± 0.019^ ng/mL.

**Q.** And the PGD2 [1]?
**A.** The PGD2 was 0.40 ± 0.030^d ng/mL.

**Q.** And the PGE2 [1]?
**A.** The PGE2 was 0.71 ± 0.012^b ng/mL.

**Q.** And the 15d-PGJ2 (100 nM, 4 h, without TNF-α)?
**A.** The 15d-PGJ2 was 0.37 ± 0.018 ng/mL.

**Q.** What about the PGD2 (100 nM, 4 h, without TNF-α) of the same compound?
**A.** The PGD2 was 0.20 ± 0.013 ng/mL.

**Q.** What about the PGE2 (100 nM, 4 h, without TNF-α) of the same compound?
**A.** Its PGE2 is 0.22 ± 0.020 ng/mL.

**Q.** What about the 15d-PGJ2 (100 nM, 24 h, without TNF-α) of the same compound?
**A.** The 15d-PGJ2 was 1.70 ± 0.016^a ng/mL.

**Q.** And the PGD2 (100 nM, 24 h, without TNF-α)?
**A.** The PGD2 was 0.24 ± 0.031^a ng/mL.

**Q.** And the PGE2 (100 nM, 24 h, without TNF-α)?
**A.** The PGE2 was 0.24 ± 0.022 ng/mL.

Source: US20130023504A1, “Modulation of Prostaglandin/Cyclooxygenase Metabolic Pathways” (HUNTER-FLEMING LIMITED, priority 2006, published 2013)
